Test results from article PMC12273560, “A versatile fluorescence polarization-based deubiquitination assay using an isopeptide bond substrate mimetic (IsoMim)” (The Journal of Biological Chemistry, 2025).

How the values were obtained:
USP2 = target: T1, USP2 (Homo sapiens, UniProt O75604); experiment: fluorescence polarization deubiquitination assay (IsoMim); format: biochemical
T1 construct: expressed in E. coli BL21(DE3)-RIL, nickel column purification
T1 sequence (O75604 250-605): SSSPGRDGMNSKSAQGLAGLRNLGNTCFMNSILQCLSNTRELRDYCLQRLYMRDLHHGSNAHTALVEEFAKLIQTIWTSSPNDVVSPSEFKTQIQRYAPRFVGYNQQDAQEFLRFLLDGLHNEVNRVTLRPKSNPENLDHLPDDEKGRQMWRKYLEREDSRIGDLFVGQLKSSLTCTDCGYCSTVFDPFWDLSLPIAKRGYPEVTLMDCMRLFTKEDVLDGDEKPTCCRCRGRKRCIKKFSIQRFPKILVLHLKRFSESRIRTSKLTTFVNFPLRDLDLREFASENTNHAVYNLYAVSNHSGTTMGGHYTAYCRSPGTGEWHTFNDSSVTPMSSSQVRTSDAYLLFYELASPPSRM

UCHL3 = target: T2, UCHL3 (Homo sapiens, UniProt P15374); experiment: as above; format: biochemical
T2 construct: expressed in E. coli BL21(DE3)-RIL, nickel column purification
T2 sequence (P15374 1-230): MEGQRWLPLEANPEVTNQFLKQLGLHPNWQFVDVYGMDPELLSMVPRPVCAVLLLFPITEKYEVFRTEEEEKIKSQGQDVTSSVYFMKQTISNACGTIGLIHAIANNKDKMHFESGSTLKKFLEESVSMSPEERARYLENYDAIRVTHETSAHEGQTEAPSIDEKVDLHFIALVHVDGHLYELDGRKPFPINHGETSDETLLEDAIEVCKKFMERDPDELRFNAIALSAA

Compound `N#CSc1cc(SC#N)c(N)nc1N` [PR-619] has an IC50 (USP2) of 1070 nM and an IC50 (UCHL3) of 4680 nM.
